Legend:
Format in all cases: in vivo
[1] = tested on: commercially relevant broadleaf and grass weeds; assay: Pre- and post-emergence weed control, general statement; conditions: application rate of 2.5 to 50 g ai/ha; pre-emergence or post-emergence application
Description: (§1) Additional examples of application rates for Compound I as a pre-emergence and post-emergence application include 0.25 to 50 g ae/ha, 0.25 to 45 g ae/ha, 0.25 to 40 g ae/ha, 0.25 to 35 g ae/ha, 0.25 to 30 g ae/ha, 0.25 to 25 g ae/ha, 0.25 to 20 g ae/ha, 0.25 to 15 g ae/ha, 0.25 to 10 g ae/ha, 0.25 to 5 g ae/ha, 2.5 to 50 g ae/ha, 5 to 50 g ae/ha, 10 to 50 g ae/ha, 15 to 50 g ae/ha, 20 to 50 g ae/ha, 25 to 50 g ae/ha, 30 to 50 g ae/ha, 35 to 50 g ae/ha, 40 to 50 g ae/ha, 45 to 50 g ae/ha, 5 to 40 g ae/ha, 10 to 40 g ae/ha, 15 to 40 g ae/ha, 20 to 40 g ae/ha, 25 to 40 g ae/ha, 30 to 40 g ae/ha, 35 to 40 g ae/ha, 2.5 to 35 g ae/ha, 2.5 to 30 g ae/ha, 2.5 to 25 g ae/ha, 2.5 to 20 g ae/ha, 2.5 to 15 g ae/ha, 2.5 to 10 g ae/ha, 2.5 to 5 g ae/ha, 5 to 35 g ae/ha, 10 to 30 g ae/ha, 15 to 25 g ae/ha, and 15 to 20 g ae/ha. Further examples of application rates for Compound I as a pre-emergence and post-emergence application include 0.25 g ae/ha, 0.5 g ae/ha, 0.75 g ae/ha, 1 g ae/ha, 1.25 g ae/ha, 1.5 g ae/ha, 1.75 g ae/ha, 2 g ae/ha, 2.25 g ae/ha, 2.5 g ae/ha, 3 g ae/ha, 4 g ae/ha, 5 g ae/ha, 6 g ae/ha, 7 g ae/ha, 8 g ae/ha, 9 g ae/ha, 10 g ae/ha, 12 g ae/ha, 14 g ae/ha, 16 g ae/ha, 18 g ae/ha, 20 g ae/ha, 22 g ae/ha, 24 g ae/ha, 26 g ae/ha, 28 g ae/ha, 30 g ae/ha, 32 g ae/ha, 34 g ae/ha, 36 g ae/ha, 38 g ae/ha, 40 g ae/ha, 42 g ae/ha, 44 g ae/ha, 46 g ae/ha, 48 g ae/ha, and 50 g ae/ha. […]

[2] = tested on: grapevines and perennial crops; assay: Crop safety, general statement; conditions: post-emergence application rates of ≤20 g ae/ha; dormant application or spring application directed under the crops
Description: as §1

[3] = tested on: AMSIN (Amsinckia intermedia, coast fiddleneck); assay: Field trial, pre-emergence application (February), California vineyards: visual weed control
Description: (§2) As used herein, selective pre- and post-emergence control of undesirable vegetation means preventing, reducing, killing, or otherwise adversely modifying the development of the undesirable vegetation in the presence of crop plants with limited adverse effect on the crop plants. For example, a broadleaf weed control of 80% (rated visually) with crop injury of less than or equal to 20% (rated visually) would constitute selective control. In some embodiments the adverse effect on crop plants is limited to less than 10% visually rated crop injury. Visual crop injury is a composite rating accounting for all phytotoxic effects including chlorosis, necrosis, growth inhibition, epinasty, delays in maturity and seed or fruit deformity. Visual weed control is a composite rating accounting for reductions in pest plant biomass and/or stand reduction.
(§3) Small plot research experiments were conducted in Fresno, Calif., USA to evaluate the pre-emergence and post-emergence herbicidal weed control activity and the vines crop tolerance to pre-emergence and post-emergence application of Compound I and Compound II to the weeds. Application water volume of 100 to 187 liters per hectare (L/ha) was used for all experiments. All treatments were applied with a standard small plot carbon dioxide (CO2) backpack sprayer. All treatments were tank-mixed with Crop Oil Concentrate (COC), a well known adjuvant, at 2.34 L/ha. Experimental emulsifiable concentrate (EC) formulations were used for Compounds I and II. The dimethylammonium (DMA) salt of glyphosate was used in all trials. Pindar® GT is a commercial formulation containing a pre-mix of penoxsulam+oxyfluorfen (10+476 grams of active ingredient per liter (g ai/L), respectively). Vine crop stage was dormant (no leaves on the vines during the winter) or early spring growth at the time of Compound I or Compound II application. Generally, weeds were not emerged for the pre-emergence treatments or were at the two to six-leaf stage at the time of the post-emergence herbicide application.
(§4) Tables 1, 2 and 6 provide weed control results from pre-emergence applications of Compounds I and/or II prior to weed emergence; Tables 4, 7 and 8 provide weed control results from post-emergence applications of Compounds I and/or II applied to actively growing weeds; Tables 3 and 5 provide vine response data from pre-emergence and post-emergence applications of Compound I respectively.

[4] = tested on: CAPBP (Capsella bursa-pastoris, Shepherd's purse); assay: as above
Description: as §2, §3, §4

[5] = tested on: CLNCM (Calandrinia ciliata, rock purslane); assay: as above
Description: as §2, §3, §4

[6] = tested on: EROCI (Erodium cicutarium, redstem filaree); assay: Field trial, post-emergence directed spring application (March), California vineyards: visual weed control
Description: as §2, §3, §4

[7] = tested on: MALPA (Malva parviflora, smallflower malva); assay: as above
Description: as §2, §3, §4

[8] = tested on: MEDPO (Medicago polymorpha, California burclover); assay: as above
Description: as §2, §3, §4

[9] = tested on: STEME (Stellaria media, common chickweed); assay: as above
Description: as §2, §3, §4

[10] = tested on: AMARE (Amaranthus retroflexus, redroot pigweed); assay: Field trial, post-emergence directed dormant application (December), California vineyards: visual weed control
Description: as §2, §3, §4

[11] = tested on: AMSIN (Amsinckia intermedia, coast fiddleneck); assay: as above
Description: as §2, §3, §4

[12] = tested on: CAPBP (Capsella bursa-pastoris, Shepherd's purse); assay: as above
Description: as §2, §3, §4

[13] = tested on: CHEAL (Chenopodium album, common lambsquarters); assay: as above
Description: as §2, §3, §4

[14] = tested on: IPOSS (Ipomoea spp, morningglory); assay: as above
Description: as §2, §3, §4

COc1c(Cl)ccc(-c2nc(C(=O)O)c(Cl)c(N)c2F)c1F [Compound II, 4-amino-3-chloro-5-fluoro-6-(4-chloro-2-fluoro-3-methoxyphenyl)pyridine-2-carboxylic acid]
efficacy on commercially relevant broadleaf and grass weeds [1]: highly efficacious
crop injury to grapevines and perennial crops [2]: little to no crop injury

COc1c(Cl)ccc(-c2nc(C(=O)OCc3ccccc3)c(Cl)c(N)c2F)c1F [II-Bn, benzyl 4-amino-3-chloro-5-fluoro-6-(4-chloro-2-fluoro-3-methoxyphenyl)pyridine-2-carboxylate]
% Visual Control 48 DAA AMSIN ([3]; 5 g ai/ha): 0%
% Visual Control 48 DAA AMSIN ([3]; 10 g ai/ha): 33.3%
% Visual Control 48 DAA AMSIN ([3]; 20 g ai/ha): 40%
% Visual Control 48 DAA AMSIN ([3]; 40 g ai/ha): 87.3%
% Visual Control 48 DAA AMSIN ([3]; 50 g ai/ha): 84.3%
% Visual Control 48 DAA CAPBP ([4]; 5 g ai/ha): 0%
% Visual Control 48 DAA CAPBP ([4]; 10 g ai/ha): 60%
% Visual Control 48 DAA CAPBP ([4]; 20 g ai/ha): 76.7%
% Visual Control 48 DAA CAPBP ([4]; 40 g ai/ha): 100%
% Visual Control 48 DAA CAPBP ([4]; 50 g ai/ha): 96.7%
% Visual Control 48 DAA CLNCM ([5]; 5 g ai/ha): 0%
% Visual Control 48 DAA CLNCM ([5]; 10 g ai/ha): 40%
% Visual Control 48 DAA CLNCM ([5]; 20 g ai/ha): 56.7%
% Visual Control 48 DAA CLNCM ([5]; 40 g ai/ha): 90%
% Visual Control 48 DAA CLNCM ([5]; 50 g ai/ha): 96.7%
% Visual Control 59 DAA EROCI ([6]; 5 g ai/ha): 81.7%
% Visual Control 59 DAA EROCI ([6]; 10 g ai/ha): 85%
% Visual Control 59 DAA EROCI ([6]; 20 g ai/ha): 85%
% Visual Control 59 DAA EROCI ([6]; 40 g ai/ha): 94.3%
% Visual Control 59 DAA EROCI ([6]; 50 g ai/ha): 96%
% Visual Control 59 DAA MALPA ([7]; 5 g ai/ha): 61.9%
% Visual Control 59 DAA MALPA ([7]; 10 g ai/ha): 83.4%
% Visual Control 59 DAA MALPA ([7]; 20 g ai/ha): 90%
% Visual Control 59 DAA MALPA ([7]; 40 g ai/ha): 95%
% Visual Control 59 DAA MALPA ([7]; 50 g ai/ha): 96.7%
% Visual Control 59 DAA MEDPO ([8]; 5 g ai/ha): 100%
% Visual Control 59 DAA MEDPO ([8]; 10 g ai/ha): 100%
% Visual Control 59 DAA MEDPO ([8]; 20 g ai/ha): 100%
% Visual Control 59 DAA MEDPO ([8]; 40 g ai/ha): 100%
% Visual Control 59 DAA MEDPO ([8]; 50 g ai/ha): 100%
% Visual Control 59 DAA STEME ([9]; 5 g ai/ha): 70%
% Visual Control 59 DAA STEME ([9]; 10 g ai/ha): 75%
% Visual Control 59 DAA STEME ([9]; 20 g ai/ha): 84.3%
% Visual Control 59 DAA STEME ([9]; 40 g ai/ha): 94.3%
% Visual Control 59 DAA STEME ([9]; 50 g ai/ha): 97.3%
% Visual Control 57 DAA AMARE ([10]; 5 g ai/ha): 100%
% Visual Control 57 DAA AMARE ([10]; 10 g ai/ha): 95%
% Visual Control 57 DAA AMARE ([10]; 20 g ai/ha): 100%
% Visual Control 57 DAA AMARE ([10]; 40 g ai/ha): 100%
% Visual Control 57 DAA AMARE ([10]; 50 g ai/ha): 100%
% Visual Control 57 DAA AMSIN ([11]; 5 g ai/ha): 56.7%
% Visual Control 57 DAA AMSIN ([11]; 10 g ai/ha): 96.7%
% Visual Control 57 DAA AMSIN ([11]; 20 g ai/ha): 86.7%
% Visual Control 57 DAA AMSIN ([11]; 40 g ai/ha): 100%
% Visual Control 57 DAA AMSIN ([11]; 50 g ai/ha): 100%
% Visual Control 57 DAA CAPBP ([12]; 5 g ai/ha): 100%
% Visual Control 57 DAA CAPBP ([12]; 10 g ai/ha): 100%
% Visual Control 57 DAA CAPBP ([12]; 20 g ai/ha): 100%
% Visual Control 57 DAA CAPBP ([12]; 40 g ai/ha): 100%
% Visual Control 57 DAA CAPBP ([12]; 50 g ai/ha): 100%
% Visual Control 57 DAA CHEAL ([13]; 5 g ai/ha): 96.7%
% Visual Control 57 DAA CHEAL ([13]; 10 g ai/ha): 100%
% Visual Control 57 DAA CHEAL ([13]; 20 g ai/ha): 100%
% Visual Control 57 DAA CHEAL ([13]; 40 g ai/ha): 100%
% Visual Control 57 DAA CHEAL ([13]; 50 g ai/ha): 100%
% Visual Control 57 DAA IPOSS ([14]; 5 g ai/ha): 55%
% Visual Control 57 DAA IPOSS ([14]; 10 g ai/ha): 46.7%
% Visual Control 57 DAA IPOSS ([14]; 20 g ai/ha): 66.7%
% Visual Control 57 DAA IPOSS ([14]; 40 g ai/ha): 66.7%
% Visual Control 57 DAA IPOSS ([14]; 50 g ai/ha): 97.3%

O=C(O)CNCP(=O)(O)O [Glyphosate, glyphosate, reference compound]
% Visual Control 48 DAA AMSIN ([3]; 1680 g ae/ha): 0%
% Visual Control 48 DAA CAPBP ([4]; 1680 g ae/ha): 0%
% Visual Control 48 DAA CLNCM ([5]; 1680 g ae/ha): 0%
% Visual Control 59 DAA EROCI ([6]; 1680 g ae/ha): 91%
% Visual Control 59 DAA MALPA ([7]; 1680 g ae/ha): 86.7%
% Visual Control 59 DAA MEDPO ([8]; 1680 g ae/ha): 100%
% Visual Control 59 DAA STEME ([9]; 1680 g ae/ha): 93.3%
% Visual Control 57 DAA AMARE ([10]; 1680 g ae/ha): 0%
% Visual Control 57 DAA AMSIN ([11]; 1680 g ae/ha): 100%
% Visual Control 57 DAA CAPBP ([12]; 1680 g ae/ha): 99.3%
% Visual Control 57 DAA CHEAL ([13]; 1680 g ae/ha): 95%
% Visual Control 57 DAA IPOSS ([14]; 1680 g ae/ha): 51.7%

From patent US20220039384A1, “SELECTIVE WEED CONTROL WITH HALAUXIFEN OR 4-AMINO-3-CHLORO-5-FLUORO-6-(4-CHLORO-2-FLUORO-3-METHOXYPHENYL) PYRIDINE-2-CARBOXYLIC ACID OR DERIVATIVES THEREOF IN VINEYARDS OR PERENNIAL CROPS” (Corteva Agriscience LLC, priority 2013, published 2022)
